What is called IC50 is the concentration at which inhibition is half-maximal. Lower therefore signals greater potency. One may read the ΔTm as the change in melting temperature against a reference sample. Usually EC50 stands for the concentration at which the effect is half-maximal. A high value points to weaker potency.

The results in this text go back to ChEMBL document CHEMBL6121024, “Development of a Buchwald-Hartwig Amination for an Accelerated Library Synthesis of Cereblon Binders” (ACS Med Chem Lett, 2025).

Experiment [1] concerns the target Protein cereblon/DNA damage-binding protein 1 (Homo sapiens, UniProt Q96SW2). Kind of experiment: Binding affinity to 6-his tagged CRBN (1 to 442 residues)/ DDB1 (1 to 1140 residues) (unknown origin) incubated for 20 mins by time-resolved fluorescence probe displacement assay. The experiment is classed as protein assay.
The target in experiment [2] is T1, Protein cereblon/DNA damage-binding protein 1 (Homo sapiens) (UniProt Q96SW2+Q16531). Kind of experiment: Induction of thermal stabilization of ZZ domain 6-His thrombin tagged human CRBN (1 to 442 residues)/[…] human DDB1 (396 to 706 residues) expressed in baculovirus infected Sf9 cells assessed as change in thermal shift incubated for 1 hr by […] analysis.

Experiment [3] can be described thus: Induction of degradation of ePL tagged GSPT1 in human DF15 cells incubated for 20 hrs by luminescence based analysis. The experiment is classed as cell-based. Particulars: DF15, 20 h.
In another experiment the test system is MDS-L. The experiment can be described thus: Induction of degradation of ePL tagged CK1alpha in human MDS-L cells by measuring minimum efficacy incubated for 4 hrs by luminescence based analysis relative to control. Format: cell-based.
The target in experiment [4] is Zinc finger protein Aiolos (Homo sapiens, UniProt Q9UKT9). Kind of experiment: Induction of degradation of ePL tagged AIOLOS in human DF15 cells incubated for 4 hrs by luminescence based analysis. The experiment is classed as cell-based.
Experiment [5] can be described thus: Induction of degradation of ePL tagged CK1alpha in human MDS-L cells incubated for 4 hrs by luminescence based analysis. Format: cell-based.
The target of experiment [6] is T1, Protein cereblon/DNA damage-binding protein 1 (Homo sapiens). Particulars: Sf9.
The target is the same in experiment [7]. The conditions noted are these: Sf9. This is another data set of the same source.
In a further experiment the test system is DF15. The experiment can be described thus: Induction of degradation of ePL tagged GSPT1 in human DF15 cells by measuring minimum efficacy incubated for 20 hrs by luminescence based analysis. Format: cell-based.

In experiment [1], `Cn1nc(C2CCC(=O)NC2=O)c2ccc(NC3CCNCC3)cc21` (stereo not drawn) yielded a concentration for half-maximal inhibition (IC50) of 0.03 µM. Also, in experiment [2], the shift in melting temperature (ΔTm) came to 6 °C.
For the molecule `Cn1nc(C2(C)CCC(=O)NC2=O)c2ccc(NCC3CCN(C(=O)OC(C)(C)C)CC3)cc21` (stereo not drawn), the 50% effective concentration (EC50) in experiment [3], in [4] and in [5] was greater than 10 µM in each case. Also, the results for the Emin with MDS-L and with DF15 were 90% and 96%, respectively. In addition, in experiment [1], the half-inhibitory concentration (IC50) was 0.83 µM. For the same molecule, in [6], the thermal shift (ΔTm) is 4.7 °C. Moreover, the Tm in [7] worked out at 65.2 °C.
Take `Cn1nc(C2CCC(=O)NC2=O)c2ccc(N3CCOCC3)cc21` (stereo not drawn): the EC50 in experiment [3], in experiment [4] and in [5] was greater than 10 µM in each case. Besides, the Emin in the experiment with MDS-L was determined as 100%; in the experiment with DF15, 93%. In addition, the IC50 in experiment [1] turned out to be 0.07 µM. Moreover, the ΔTm in [6] worked out at 5.7 °C. Moreover, the Tm in experiment [7] is 66.2 °C.
Consider `Cn1nc(C2CCC(=O)NC2=O)c2ccc(NC3CCCN(C(=O)OC(C)(C)C)CC3)cc21` (stereo not drawn), for which the EC50 in experiment [3], in experiment [4] and in experiment [5] was greater than 10 µM throughout. Moreover, the Emin in the experiment with MDS-L was found to be 91%; in the experiment with DF15, 85%. Besides, the 50% inhibitory concentration (IC50) in experiment [1] is 0.04 µM. In addition, the shift in melting temperature (ΔTm) in experiment [6] came out at 5.8 °C. For the same molecule, the Tm in experiment [7] turned out to be 66.2 °C.
Regarding `CN(C(=O)OC(C)(C)C)C1CCN(c2cccc(C3CCC(=O)NC3=O)c2)CC1` (stereo not drawn), the half-maximal effective concentration (EC50) in experiment [3], in experiment [4] and in experiment [5] was greater than 10 µM throughout. For the same molecule, the Emin in the experiment on MDS-L and in the experiment with DF15 was 90% in each case. For the same molecule, in experiment [1], the concentration for half-maximal inhibition (IC50) amounted to 12 µM. For the same molecule, the shift in melting temperature (ΔTm) in experiment [6] turned out to be 1.8 °C. In addition, in experiment [7], the Tm amounted to 62.3 °C.
For the molecule `CN(Cc1ccccc1)c1ccc2c(C3CCC(=O)NC3=O)nn(C)c2c1` (stereo not drawn), the half-maximal effective concentration (EC50) in [3], in [4] and in experiment [5] was greater than 10 µM throughout. Besides, the Emin amounted to 87% in the experiment with MDS-L and 92% in the experiment with DF15. In [1], this molecule yielded an IC50 of 0.07 µM. For the same molecule, the ΔTm in experiment [6] was 5.9 °C. In addition, the Tm in experiment [7] turned out to be 66.3 °C.
For `CN(C(=O)OC(C)(C)C)C1CCN(c2ccc3c(C4CCC(=O)NC4=O)nn(C)c3c2)CC1` (stereo not drawn), the figures for the EC50 in experiment [3], in experiment [4] and in experiment [5] were 2.26 µM, 6.38 µM and greater than 10 µM, respectively. The results for the Emin in the experiment on MDS-L and in the experiment with DF15 were 91% and 69%, respectively. The same molecule registered a half-maximal inhibitory concentration (IC50) in [1] of 0.08 µM. In experiment [6], the ΔTm was 5.6 °C. The Tm in [7] is 66.1 °C.
Consider `COc1cc2c(C3CCC(=O)NC3=O)nn(C)c2cc1N1CCC(N(C)C(=O)OC(C)(C)C)CC1` (stereo not drawn), for which the EC50 in experiment [3], in experiment [4] and in experiment [5] was greater than 10 µM throughout. Further, the Emin was 88% in the experiment with MDS-L and 90% with DF15. The same molecule returned an IC50 in experiment [1] of 28.7 µM. For the same molecule, in [6], the shift in melting temperature (ΔTm) is 1.6 °C. The Tm in [7] came to 62.1 °C.
